The term IC50 denotes the midpoint of a concentration-inhibition curve.

From patent US11608338B2, “Imidazolonylquinolines and the use thereof as ATM kinase inhibitors” (priority 2015, dated 2023) come the findings set out here.

The target of experiment [1] is human recombinant ATM (ataxia telangiectasia mutated) kinase (Homo sapiens (Human), UniProt Q13315). The experiment is described as follows: ATM kinase assay, determination of ATM inhibition (IC50 ATM), TR-FRET. It is filed as biochemical. The following applies: 10 μM ATP, p53 substrate. Here is the method:
ATM Kinase Assay—Determination of ATM Inhibition (IC50 ATM):
The IC50 value was determined with the aid of a biochemical ATM kinase assay. The assay consists of two steps: the enzymatic reaction and the detection step. Firstly, ATM (ataxia telangiectasia mutated) protein and the test substance are incubated at different concentrations with addition of substrate protein p53 and ATP. ATM mediates the phosphorylation of p53 at several positions, including at amino acid S15. The amount of phosphorylated p53 is determined with the aid of specific antibodies and the TR-FRET technique. The enzymatic ATM assay is carried out as TR-FRET (HTRF™, Cisbio Bioassays) based 384-well assay. In the first step, purified human recombinant ATM (human ATM, full length, GenBank ID NM_000051, expressed in a mammal cell line) is incubated in assay buffer for 15 minutes with the ATM inhibitor in various concentrations and without test substance as negative or neutral control. The assay buffer comprises 25 mM HEPES pH 8.0, 10 mM Mg(CH3COO)2, 1 mM MnCl2, 0.1% BSA and 0.01% Brij® 35, 5 mM dithiothreitol (DTT). […] After incubation, usually for 2 hours (between 1.5 and 15 h), for signal development, the plates are analysed in a plate reader (EnVision, PerkinElmer) using TRF mode (and with laser excitation). […]
(Time-resolved FRET reads energy transfer from a long-lived donor to a nearby acceptor.)

In experiment [2] the test system is phosphorylation of CHK2 (Thr68) in HCT116 cells. The experiment is described as follows: Cellular pCHK2 assay, bleomycin-induced phosphorylation of CHK2 (phospho-Thr68), immunofluorescence high content. It is filed as cell-based, human. The following applies: 10 μM bleomycin, 4 h. An excerpt:
For the identification of substances which inhibit the phosphorylation of the protein kinase CHK2 at the amino acid threonine 68, an immunofluorescence-based “high content” analysis assay was used in HCT116 cells.
In vitro cell-based immunofluorescence assay for the identification of inhibitors of bleomycin-induced phosphorylation of CHK2 (phospho-Thr68) in the human colon carcinoma cell line HCT116:
HCT116 cells are sown out in a defined cell density in 384-well plates in culture medium (DMEM high glucose, 2 mM GlutaMax, 1 mM Na pyruvate, 10% FCS) and incubated overnight at 37° C. and 10% of CO2. […] After incubation for four hours at 37° C. and 10% of CO2, the cells are fixed (5 min, 4% formaldehyde in PBS), permeabilised (10 min, 0.2% Triton X-100 in PBS) and, after blocking of nonspecific binding sites (10% goat serum, 1% BSA in PBS), incubated overnight at 4° C. with a specific anti-pCHK2 antibody (cell signalling #2661). pCHK2 (Thr68) is determined using an Alexa488-labelled secondary anti-rabbit IgG antibody. […] The pCHK2 signal is detected using a high-content imager (Molecular Devices IMX Ultra) and automatic image analysis using the MetaXpress software belonging to the instrument. The number of cell nuclei which have a pCHK2 signal above a defined background is determined.

The target of the next experiment is mTOR (human) (Homo sapiens (Human), UniProt P42345). In words: mTOR (human) radiometric kinase assay. Type of experiment: biochemical. The following applies: ATM versus mTOR. The procedure:
Furthermore, the effect, in particular inhibition, of other kinases and thus the selectivity of the compounds according to the invention can be determined with the aid of the following assay:
mTOR (human) was incubated with 50 mM HEPES pH 7.5, 1 mM EGTA, 0.01% Tween 20, 2 mg/ml of the substrate, 3 mM MnCl2 and [γ-^33P-ATP] (specific activity approximately 500 cpm/pmol, concentration as necessary). The reaction was initiated by addition of MgATP solution. After incubation at room temperature for 40 minutes, the reaction was stopped by addition of 3% phosphoric acid. 10 μl of the reaction solution were then transferred dropwise onto a P30 filtermat and washed three times for 5 min in 75 mM phosphoric acid and once in methanol, dried and evaluated by means of liquid scintillation counting.

A further experiment deals with PI3K p110β/p85α (human) (Homo sapiens (Human), UniProt P42338). The experiment is described as follows: PI3K p110β/p85α (human), non-radioactive assay (HTRF). It is filed as biochemical. The following applies: ATM versus PI3Kbeta. Here is the method: PI3K p110β/p85α (Human), Non-Radioactive Assay
PI3K p110β/p85α (human) was incubated in an assay buffer comprising 10 μM phosphatidylinositol 4,5-bisphosphate and MgATP (concentration as necessary). The reaction was initiated by addition of MgATP solution. After an incubation time of 30 min at room temperature, the reaction was stopped by addition of a solution consisting of EDTA and biotinylated phosphatidylinositol 3,4,5-trisphosphate. Finally, the detection buffer, consisting of a europium-labelled anti-GST monoclonal antibody, a GST-labelled GRP1 PH domain and streptavidin allophycocyanin, was added. The plate was read out via homogeneous time-resolved fluorescence (HTRF) and the corresponding signals were evaluated via the formula HTRF=10000×(Em665 nm/Em620 nm).

Chain of PI3K p110β/p85α (human) (P42338 whole entry, the tested form may be a part): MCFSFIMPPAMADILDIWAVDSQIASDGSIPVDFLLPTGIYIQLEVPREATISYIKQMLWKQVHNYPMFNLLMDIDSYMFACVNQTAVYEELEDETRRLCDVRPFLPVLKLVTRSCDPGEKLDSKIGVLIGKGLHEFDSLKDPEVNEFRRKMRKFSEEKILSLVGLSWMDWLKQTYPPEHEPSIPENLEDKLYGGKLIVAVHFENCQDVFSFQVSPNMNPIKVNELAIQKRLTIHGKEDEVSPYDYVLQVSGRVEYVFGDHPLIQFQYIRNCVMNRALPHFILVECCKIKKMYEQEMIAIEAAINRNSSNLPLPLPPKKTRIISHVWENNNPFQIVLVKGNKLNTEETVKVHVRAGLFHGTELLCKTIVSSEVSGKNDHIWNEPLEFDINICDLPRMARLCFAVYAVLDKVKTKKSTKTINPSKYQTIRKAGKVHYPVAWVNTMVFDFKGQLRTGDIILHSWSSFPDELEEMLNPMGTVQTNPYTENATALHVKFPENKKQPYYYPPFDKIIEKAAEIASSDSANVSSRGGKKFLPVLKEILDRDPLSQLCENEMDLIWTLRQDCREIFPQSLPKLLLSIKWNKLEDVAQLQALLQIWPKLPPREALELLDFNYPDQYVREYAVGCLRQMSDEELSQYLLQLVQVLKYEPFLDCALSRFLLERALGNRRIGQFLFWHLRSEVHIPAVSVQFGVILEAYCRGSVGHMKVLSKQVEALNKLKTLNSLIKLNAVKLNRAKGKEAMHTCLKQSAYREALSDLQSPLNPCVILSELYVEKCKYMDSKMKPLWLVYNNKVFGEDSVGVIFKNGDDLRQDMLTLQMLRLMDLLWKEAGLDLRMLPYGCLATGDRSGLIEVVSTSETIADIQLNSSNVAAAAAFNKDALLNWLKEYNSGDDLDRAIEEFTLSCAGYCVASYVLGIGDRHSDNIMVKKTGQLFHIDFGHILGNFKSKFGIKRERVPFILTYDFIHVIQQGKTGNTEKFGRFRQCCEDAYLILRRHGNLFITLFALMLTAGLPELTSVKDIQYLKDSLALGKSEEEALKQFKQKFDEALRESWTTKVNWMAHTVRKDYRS
Chain of PI3K p110β/p85α (human) (P27986 whole entry partner, the tested form may be a part): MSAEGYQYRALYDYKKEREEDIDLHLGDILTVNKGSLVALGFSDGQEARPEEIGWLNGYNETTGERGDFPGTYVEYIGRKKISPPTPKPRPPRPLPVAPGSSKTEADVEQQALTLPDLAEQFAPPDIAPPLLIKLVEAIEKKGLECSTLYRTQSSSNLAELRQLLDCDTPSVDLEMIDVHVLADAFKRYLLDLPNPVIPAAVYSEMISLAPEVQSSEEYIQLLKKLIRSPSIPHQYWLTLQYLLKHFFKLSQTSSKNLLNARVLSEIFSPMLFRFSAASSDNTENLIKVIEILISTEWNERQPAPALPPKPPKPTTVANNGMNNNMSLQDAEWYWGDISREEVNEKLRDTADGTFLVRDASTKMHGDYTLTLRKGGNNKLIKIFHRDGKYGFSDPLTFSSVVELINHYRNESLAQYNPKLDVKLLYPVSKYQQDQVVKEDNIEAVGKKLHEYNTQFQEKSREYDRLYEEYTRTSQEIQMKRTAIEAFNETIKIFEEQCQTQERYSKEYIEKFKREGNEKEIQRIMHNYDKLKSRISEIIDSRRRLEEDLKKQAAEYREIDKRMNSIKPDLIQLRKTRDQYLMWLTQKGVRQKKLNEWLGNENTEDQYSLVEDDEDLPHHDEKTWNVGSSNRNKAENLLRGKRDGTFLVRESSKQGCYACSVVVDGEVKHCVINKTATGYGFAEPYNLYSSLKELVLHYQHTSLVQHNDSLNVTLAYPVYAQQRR
Chain of human recombinant ATM (ataxia telangiectasia mutated) kinase (Q13315 whole entry, change not shown): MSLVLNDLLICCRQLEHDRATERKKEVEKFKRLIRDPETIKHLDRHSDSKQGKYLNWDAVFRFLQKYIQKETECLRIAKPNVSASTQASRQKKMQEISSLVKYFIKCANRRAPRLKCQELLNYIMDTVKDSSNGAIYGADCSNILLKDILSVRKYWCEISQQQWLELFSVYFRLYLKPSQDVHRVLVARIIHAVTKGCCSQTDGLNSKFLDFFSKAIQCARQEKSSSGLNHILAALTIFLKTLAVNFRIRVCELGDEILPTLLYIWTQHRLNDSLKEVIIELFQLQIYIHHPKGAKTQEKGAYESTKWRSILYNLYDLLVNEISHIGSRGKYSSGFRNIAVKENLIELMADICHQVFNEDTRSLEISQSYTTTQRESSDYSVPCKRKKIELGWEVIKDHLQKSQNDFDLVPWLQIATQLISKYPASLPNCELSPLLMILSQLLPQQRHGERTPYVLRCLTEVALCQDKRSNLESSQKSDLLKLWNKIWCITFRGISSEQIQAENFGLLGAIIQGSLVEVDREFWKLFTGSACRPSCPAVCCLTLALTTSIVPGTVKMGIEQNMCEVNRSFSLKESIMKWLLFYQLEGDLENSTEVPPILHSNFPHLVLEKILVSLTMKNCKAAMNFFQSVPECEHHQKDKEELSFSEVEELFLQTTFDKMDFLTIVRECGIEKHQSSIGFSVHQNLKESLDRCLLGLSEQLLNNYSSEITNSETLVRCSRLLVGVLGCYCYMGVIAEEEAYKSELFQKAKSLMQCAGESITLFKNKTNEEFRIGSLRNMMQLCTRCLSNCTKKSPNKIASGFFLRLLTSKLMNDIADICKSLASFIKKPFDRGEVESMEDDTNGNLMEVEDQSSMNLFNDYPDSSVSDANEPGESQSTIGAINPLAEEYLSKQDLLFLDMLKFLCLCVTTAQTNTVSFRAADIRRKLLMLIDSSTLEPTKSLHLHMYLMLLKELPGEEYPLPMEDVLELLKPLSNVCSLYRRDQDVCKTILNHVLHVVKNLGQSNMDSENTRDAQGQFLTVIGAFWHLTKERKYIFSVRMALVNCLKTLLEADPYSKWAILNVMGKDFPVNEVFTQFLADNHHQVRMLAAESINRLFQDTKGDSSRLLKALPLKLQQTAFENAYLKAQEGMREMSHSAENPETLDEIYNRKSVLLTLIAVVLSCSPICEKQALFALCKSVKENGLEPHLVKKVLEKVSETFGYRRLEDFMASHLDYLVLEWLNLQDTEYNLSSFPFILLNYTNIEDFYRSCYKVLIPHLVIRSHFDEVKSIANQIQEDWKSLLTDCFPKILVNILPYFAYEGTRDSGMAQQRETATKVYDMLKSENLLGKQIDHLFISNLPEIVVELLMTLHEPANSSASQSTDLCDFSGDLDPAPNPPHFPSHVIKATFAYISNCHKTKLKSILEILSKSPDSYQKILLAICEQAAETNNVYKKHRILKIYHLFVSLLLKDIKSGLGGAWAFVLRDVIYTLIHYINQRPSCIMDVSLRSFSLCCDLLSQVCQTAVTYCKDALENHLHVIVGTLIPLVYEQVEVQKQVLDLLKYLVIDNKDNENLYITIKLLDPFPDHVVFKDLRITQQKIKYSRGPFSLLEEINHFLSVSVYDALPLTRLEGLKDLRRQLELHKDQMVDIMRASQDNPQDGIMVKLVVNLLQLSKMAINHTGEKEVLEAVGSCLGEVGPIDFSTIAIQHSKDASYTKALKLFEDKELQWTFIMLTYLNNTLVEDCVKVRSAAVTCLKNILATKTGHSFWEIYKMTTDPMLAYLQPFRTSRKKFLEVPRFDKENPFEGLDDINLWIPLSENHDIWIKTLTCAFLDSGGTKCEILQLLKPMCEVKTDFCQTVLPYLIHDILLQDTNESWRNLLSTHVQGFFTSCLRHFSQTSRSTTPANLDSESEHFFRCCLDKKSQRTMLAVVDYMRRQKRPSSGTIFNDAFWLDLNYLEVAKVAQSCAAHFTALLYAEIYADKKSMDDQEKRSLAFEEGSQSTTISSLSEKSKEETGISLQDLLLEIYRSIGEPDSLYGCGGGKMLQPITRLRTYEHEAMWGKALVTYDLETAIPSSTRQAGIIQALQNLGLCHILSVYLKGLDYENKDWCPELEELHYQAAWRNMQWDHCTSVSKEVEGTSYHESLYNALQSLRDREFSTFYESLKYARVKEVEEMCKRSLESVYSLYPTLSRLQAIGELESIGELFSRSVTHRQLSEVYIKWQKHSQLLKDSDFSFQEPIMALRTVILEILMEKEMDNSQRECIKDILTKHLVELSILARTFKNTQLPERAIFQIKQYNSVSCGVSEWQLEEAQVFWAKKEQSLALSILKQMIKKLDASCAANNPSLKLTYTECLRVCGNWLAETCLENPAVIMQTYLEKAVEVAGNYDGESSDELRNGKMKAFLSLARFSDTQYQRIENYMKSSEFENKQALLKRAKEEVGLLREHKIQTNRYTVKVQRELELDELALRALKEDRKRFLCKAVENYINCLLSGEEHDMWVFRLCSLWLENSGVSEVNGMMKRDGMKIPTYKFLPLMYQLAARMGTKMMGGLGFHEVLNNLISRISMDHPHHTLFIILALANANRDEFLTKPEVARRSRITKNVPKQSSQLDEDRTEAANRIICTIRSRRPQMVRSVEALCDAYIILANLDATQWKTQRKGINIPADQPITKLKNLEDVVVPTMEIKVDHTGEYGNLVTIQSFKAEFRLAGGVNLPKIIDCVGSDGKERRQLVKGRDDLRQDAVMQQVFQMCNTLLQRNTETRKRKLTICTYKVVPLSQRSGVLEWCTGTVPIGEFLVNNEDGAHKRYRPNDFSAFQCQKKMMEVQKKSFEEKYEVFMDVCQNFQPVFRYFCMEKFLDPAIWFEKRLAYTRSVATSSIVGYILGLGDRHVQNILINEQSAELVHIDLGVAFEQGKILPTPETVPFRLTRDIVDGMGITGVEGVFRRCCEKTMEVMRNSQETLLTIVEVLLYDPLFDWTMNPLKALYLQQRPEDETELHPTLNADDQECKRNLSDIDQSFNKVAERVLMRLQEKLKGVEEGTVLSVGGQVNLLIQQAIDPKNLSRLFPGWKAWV

Take “1-(3,5-Dimethyl-1H-pyrazol- 4-yl)-7-methoxy-3-methyl-8- (1-methyl-1H-pyrazol-4-yl)- 1,3-dihydroimidazo[4,5-c]- quinolin-2-one [Example 118]”: the IC50 in experiment [1] was less than 10 nM; in experiment [2] it was 200 to 1000 nM. The “ratio IC50 (ATM):IC50 (mTOR), selectivity with respect to mTOR” value at mTOR (human) was “at least 2000 times”. Moreover, the “ratio IC50 (ATM):IC50 (PI3Kbeta), selectivity with respect to PI3Kbeta” value on PI3K p110β/p85α (human) is on record as “at least 2000 times”.
